Data set [1] deals with T1, Malonyl-CoA decarboxylase, mitochondrial (Homo sapiens, UniProt O95822).
T1 sequence (O95822 whole entry): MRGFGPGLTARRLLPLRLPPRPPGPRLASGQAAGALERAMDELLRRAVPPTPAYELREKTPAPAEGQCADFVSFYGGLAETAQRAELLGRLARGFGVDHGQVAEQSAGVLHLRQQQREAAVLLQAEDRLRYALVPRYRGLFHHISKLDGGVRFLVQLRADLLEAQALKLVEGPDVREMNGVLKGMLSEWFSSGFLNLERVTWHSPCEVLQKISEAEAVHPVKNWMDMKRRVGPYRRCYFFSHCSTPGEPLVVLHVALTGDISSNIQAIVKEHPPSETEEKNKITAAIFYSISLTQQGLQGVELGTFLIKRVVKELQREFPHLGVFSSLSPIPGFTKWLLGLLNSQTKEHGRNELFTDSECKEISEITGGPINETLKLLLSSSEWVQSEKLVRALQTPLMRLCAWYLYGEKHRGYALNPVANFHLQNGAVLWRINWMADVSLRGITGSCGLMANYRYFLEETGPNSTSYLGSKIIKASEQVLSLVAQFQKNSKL
Kind of data set: Inhibition of MCD at 10 uM.

For a further data set, the species on record is Sus scrofa. Put plainly: Decrease in lactate production in ischemic pig heart. In kind it is functional, organism-based.
The nature of data set [2]: Solubility in PBS at pH 7.4.
Data set [3] in a line: Stability in rat liver microsomes at 5 uM.
The nature of data set [4]: Stability in human liver microsomes at 5 uM.
Data set [5] in a line: Caco-2 cell membrane permeability. To be noted: human.

≈ marks a conversion by molar mass, not a printed value. Calls of active or inactive are those of the source. The calls are words filed in the database; no cut-off is given here.

`O=C(Nc1ccc(C(O)(C(F)(F)F)C(F)(F)F)cc1)N1CCOCC1`: the IC50 result in data set [1] is recorded as “Not Active”.

For `COC(=O)CCCCN(C(=O)N1CCOCC1)c1ccc(C(O)(C(F)(F)F)C(F)(F)F)cc1`, in the data set filed under Sus scrofa, the outcome was Active.

In data set [2], `O=C(O)CCCCN(C(=O)N1CCOCC1)c1ccc(C(O)(C(F)(F)F)C(F)(F)F)cc1` registered a solubility of 206 µM (≈ 97.1 µg/mL). In addition, the share remaining at 5 µM in data set [3] is 108%; in data set [4], 99%.

`CCN(C(=O)N1CCOCC1)c1ccc(C(O)(C(F)(F)F)C(F)(F)F)cc1` had a solubility in data set [2] of 189 µM (≈ 75.8 µg/mL). For the same molecule, the Papp in data set [5] was determined as 68.2 ×10⁻⁶ cm/s. Further, the fraction remaining at 5 µM was found to be 9% in data set [3] and 87% in data set [4].

As for `O=C(Nc1ccccc1)Nc1ccc(C(O)(C(F)(F)F)C(F)(F)F)cc1`, the IC50 entry in data set [1] was “Not Active”.

As for `CCN(C(=O)c1ccc(C#N)cc1)c1ccc(C(O)(C(F)(F)F)C(F)(F)F)cc1`, the solubility in data set [2] was found to be 8.7 µM (≈ 3.62 µg/mL). This molecule also yielded an apparent permeability (Papp) in data set [5] of 38.7 ×10⁻⁶ cm/s. Also, the fraction remaining at 5 µM in data set [3] worked out at 66%; in data set [4] it was 93%.

In data set [2], `CCN(CCCCO)C(=O)N(CC)c1ccc(C(O)(C(F)(F)F)C(F)(F)F)cc1` registered a solubility of 187 µM (≈ 80.6 µg/mL). The molecule also registered a Papp in data set [5] of 49.4 ×10⁻⁶ cm/s. Moreover, the fraction remaining at 5 µM in data set [3] amounted to 7%; in data set [4], 51%.

Turning to `CC(C)C(=O)Nc1ccc(C(O)(C(F)(F)F)C(F)(F)F)cc1`, the IC50 entry in data set [1] was “Not Active”.

Values taken from ChEMBL document CHEMBL1138176, “Synthesis and structure-activity relationship of small-molecule malonyl coenzyme A decarboxylase inhibitors” (J Med Chem, 2006).
